We go through six compounds from PubChem BioAssay (NCI).

Among the test systems are A549 NSCLC; CAKI-1 renal; CCRF-CEM leukemia; K-562 leukemia; LOX IMVI melanoma; MALME-3M melanoma; SF-268 CNS; SK-MEL-2 melanoma; SW-620 colon; UO-31 renal.
Common to all, as to experiment: inhibition of tumour cell growth, NCI panel, 48 h

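Compound exposure: 48 hours, 5 concentrations, 96-well plates. GI50: concentration for 50% inhibition of growth. TGI: total growth inhibition.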 Where only a bound is given, the exact number is not on record here.

For the compound `NC(=O)c1c(NC(=O)c2ccccc2)sc2c1CCC(=O)C2`, the GI50 in the assay on A549 NSCLC is 3.58 µM; in the assay with CAKI-1 renal it was 0.637 µM; with CCRF-CEM leukemia, 0.37 µM; in the assay with K-562 leukemia, 0.402 µM; with LOX IMVI melanoma it was 1.15 µM; with MALME-3M melanoma, 2.14 µM. For the same compound, the GI50 was 2.81 µM in the assay with SF-268 CNS, 2.4 µM in the assay on SK-MEL-2 melanoma, 0.352 µM in the assay on SW-620 colon and 0.865 µM in the assay with UO-31 renal. Also, the TGI with A549 NSCLC was > 100 µM; with CAKI-1 renal, 3.95 µM; with CCRF-CEM leukemia it was > 100 µM; in the assay with K-562 leukemia, > 100 µM; with LOX IMVI melanoma, 19.5 µM; with MALME-3M melanoma, 5.53 µM. The TGI in the assay on SF-268 CNS is > 100 µM; in the assay on SK-MEL-2 melanoma, 7.21 µM; in the assay on SW-620 colon it was 2.93 µM; with UO-31 renal, 2.32 µM.

Take `O=C1CC2(CCC(O)(c3ccc4ccccc4c3)C(C(=O)c3ccc4ccccc4c3)C2)C(=O)c2ccccc2N1` (stereo not given): the TGI in the assay with A549 NSCLC, in the assay on CAKI-1 renal, in the assay on CCRF-CEM leukemia, in the assay on K-562 leukemia, in the assay with LOX IMVI melanoma and in the assay with MALME-3M melanoma was > 100 µM throughout. For the same compound, the TGI with SF-268 CNS, in the assay on SK-MEL-2 melanoma, in the assay on SW-620 colon and with UO-31 renal was > 100 µM in each case.

Take `C[n+]1c(/C=C/c2c(O)ccc3ccccc23)ccc2ccccc21`: the GI50 with A549 NSCLC is 7.76 µM; in the assay with CAKI-1 renal, 5.39 µM; in the assay on CCRF-CEM leukemia, 2.38 µM; in the assay with K-562 leukemia it was 2.22 µM; in the assay on LOX IMVI melanoma it was 5.65 µM; in the assay on MALME-3M melanoma, 5.3 µM. Also, the GI50 is 7.19 µM in the assay with SF-268 CNS, 5.91 µM with SK-MEL-2 melanoma, 6.06 µM with SW-620 colon and 1.68 µM in the assay with UO-31 renal. For the same compound, the TGI in the assay on A549 NSCLC stood at 16.1 µM; in the assay on CAKI-1 renal, 12.3 µM; in the assay with CCRF-CEM leukemia it was 17.3 µM; in the assay with K-562 leukemia it was 13.4 µM; in the assay with LOX IMVI melanoma, 12.7 µM; with MALME-3M melanoma, 12.7 µM. For the same compound, the TGI was 16.7 µM in the assay with SF-268 CNS, 13.3 µM in the assay on SK-MEL-2 melanoma, 16.1 µM in the assay on SW-620 colon and 12 µM with UO-31 renal.

In the case of `COc1cc2c(cc1OC)C(C(c1ccccc1)c1ccccc1)N(C)CC2` (stereo not given), the TGI is > 100 µM in the assay with A549 NSCLC; > 100 µM in the assay with CAKI-1 renal; > 100 µM with CCRF-CEM leukemia; > 100 µM in the assay on K-562 leukemia; > 100 µM in the assay with LOX IMVI melanoma; 56.2 µM with MALME-3M melanoma. The TGI in the assay on SF-268 CNS, in the assay with SK-MEL-2 melanoma, with SW-620 colon and in the assay with UO-31 renal was > 100 µM each time.

Regarding `C[N+](C)([O-])CCOc1cc2c(c3ccccc13)-c1ccccc1C2=O`, the TGI in the assay on A549 NSCLC was 54.6 µM; with CAKI-1 renal, 61.9 µM; in the assay on CCRF-CEM leukemia, > 83.7 µM; in the assay with K-562 leukemia, > 95.2 µM; with LOX IMVI melanoma it was > 47.4 µM; with MALME-3M melanoma, 28.9 µM. Further, the TGI in the assay with SF-268 CNS was found to be 36.4 µM; with SK-MEL-2 melanoma, 33.2 µM; in the assay with SW-620 colon, 86.3 µM; in the assay on UO-31 renal it was 40 µM.

Regarding `O=c1oc2cc(O)ccc2c(O)c1C(c1ccccc1)c1c(O)c2ccc(O)cc2oc1=O`, the TGI with A549 NSCLC, with CAKI-1 renal, with CCRF-CEM leukemia, in the assay on K-562 leukemia, with LOX IMVI melanoma and with MALME-3M melanoma was > 100 µM each time. Further, the TGI with SF-268 CNS, in the assay with SK-MEL-2 melanoma, in the assay on SW-620 colon and with UO-31 renal was > 100 µM each time.
